Source: patent US9233979B2, “Compounds that are ERK inhibitors” (Merck Sharp & Dohme Corp., priority 2012, dated 2016)

target: phosphorylated active hERK2 enzyme (Homo sapiens (Human), UniProt P28482); assay: Active Human ERK2 (hERK2) Activity Assay (IMAP-FP); assay type: biochemical; conditions: Table 5, 0.5 nM hERK2, 30 μM ATP, 10 point titration, read-out: AERK2 IC50
Procedure: Assays Active Human ERK2 (hERK2) Activity Assay:
Activated ERK2 activity was determined in an IMAP-FP assay (Molecular Devices). […] The final reaction in each well of 25 μL consists of 0.5 nM hERK2, 900 nM unlabeled peptide, 80 nM labeled-peptide, and 30 μM ATP. Phosphorylation reactions were allowed to proceed for 60 minutes and were immediately quenched by the addition of 60 μL IMAP detection beads (1:1000 dilutions) in IMAP binding buffer (Molecular Devices) with 24 mM NaCl. Plates were read on EnVision reader after 60 minutes binding equilibration using Fluorescence Polarization protocol (Perkin Elmer).

Sequence of phosphorylated active hERK2 enzyme (P28482 whole entry): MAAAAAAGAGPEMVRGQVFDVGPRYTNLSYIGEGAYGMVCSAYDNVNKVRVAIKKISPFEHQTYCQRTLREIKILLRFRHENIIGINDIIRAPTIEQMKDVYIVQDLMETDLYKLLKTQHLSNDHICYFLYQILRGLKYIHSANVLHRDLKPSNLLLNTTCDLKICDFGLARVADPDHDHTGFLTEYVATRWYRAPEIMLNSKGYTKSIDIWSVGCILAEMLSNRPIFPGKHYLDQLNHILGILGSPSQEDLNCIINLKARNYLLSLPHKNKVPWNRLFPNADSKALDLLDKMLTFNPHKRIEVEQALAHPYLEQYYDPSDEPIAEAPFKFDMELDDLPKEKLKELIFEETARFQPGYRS

SMILES | IC50 [nM]
CNc1n[nH]c2cc(NC(=O)N[C@H](C)c3ccc(F)cc3)ncc12 [Example 1, 1-[(1R)-1-(4-Fluorophenyl)ethyl]-3-[3-(methylamino)-1H-pyrazolo[4,3-c]pyridin-6-yl]urea] | 7.85
CCNc1n[nH]c2cc(NC(=O)N[C@H](C)c3ccccc3)ncc12 [Example 2, (R)-1-(3-(Ethylamino)-1H-pyrazolo[4,3-c]pyridin-6-yl)-3-(1-phenylethyl)urea] | 1.13
CNc1n[nH]c2cc(NC(=O)N[C@H](C)c3ccccc3)ncc12 [Example 3, 1-[3-(methylamino)-1H-pyrazolo[4,3-c]pyridin-6-yl]-3-[(1R)-1-phenylethyl]urea] | 4.87
CCNc1n[nH]c2cc(NC(=O)N[C@H](C)c3ccccn3)ncc12 [Example 4, 1-[3-(ethylamino)-1H-pyrazolo[4,3-c]pyridin-6-yl]-3-[(1R)-1-pyridin-2-ylethyl]urea] | 19.5
CCNc1n[nH]c2cc(NC(=O)N[C@H](C)c3ccc(F)cc3)ncc12 [Example 5, 1-[3-(ethylamino)-1H-pyrazolo[4,3-c]pyridin-6-yl]-3-[(1R)-1-(4-fluorophenyl)ethyl]urea] | 1
COC[C@@H](NC(=O)Nc1cc2[nH]nc(N3CC(OC)C3)c2cn1)c1ccccc1 [Example 6, 1-[3-(3-methoxyazetidin-1-yl)-1H-pyrazolo[4,3-c]pyridin-6-yl]-3-[(1S)-2-methoxy-1-phenylethyl]urea] | 2300
COCCNC(=O)Nc1cc2[nH]nc(N3CC(OC)C3)c2cn1 [Example 7, 1-[3-(3-methoxyazetidin-1-yl)-1H-pyrazolo[4,3-c]pyridin-6-yl]-3-(2-methoxyethyl)urea] | 342
COCCNC(=O)Nc1cc2[nH]nc(N3CCC3)c2cn1 [Example 8, 1-(3-azetidin-1-yl-1H-pyrazolo[4,3-c]pyridin-6-yl)-3-(2-methoxyethyl)urea] | 255
COCCNC(=O)Nc1cc2[nH]nc(N3CCCC3)c2cn1 [Example 9, 1-(2-methoxyethyl)-3-(3-pyrrolidin-1-yl-1H-pyrazolo[4,3-c]pyridin-6-yl)urea] | 105
COCCN(C)c1n[nH]c2cc(NC(=O)N[C@H](C)c3ccccc3)ncc12 [Example 10, 1-{3-[(2-methoxyethyl)(methyl)amino]-1H-pyrazolo[4,3-c]pyridin-6-yl}-3-[(1R)-1-phenylethyl]urea] | 42.1
COC[C@H](C)NC(=O)Nc1cc2[nH]nc(N3CCOCC3)c2cn1 [Example 12, 1-[(1S)-2-methoxy-1-methylethyl]-3-(3-morpholin-4-yl-1H-pyrazolo[4,3-c]pyridin-6-yl)urea] | 51.6
COC[C@@H](NC(=O)Nc1cc2[nH]nc(N3CCN(C)CC3)c2cn1)c1ccccc1 [Example 14, 1-[(1S)-2-methoxy-1-phenylethyl]-3-[3-(4-methylpiperazin-1-yl)-1H-pyrazolo[4,3-c]pyridin-6-yl]urea] | 21.8
C[C@@H](NC(=O)Nc1cc2[nH]nc(N(C)C)c2cn1)c1ccc(F)cc1 [Example 15, 1-[3-(dimethylamino)-1H-pyrazolo[4,3-c]pyridin-6-yl]-3-[(1R)-1-(4-fluorophenyl)ethyl]urea] | 17.3
CO[C@H](C)CNC(=O)Nc1cc2[nH]nc(N3CCOCC3)c2cn1 [Example 16, 1-[(2R)-2-methoxypropyl]-3-(3-morpholin-4-yl-1H-pyrazolo[4,3-c]pyridin-6-yl)urea] | 20.6
CO[C@@H](C)CNC(=O)Nc1cc2[nH]nc(N3CCOCC3)c2cn1 [Example 17, 1-[(2S)-2-methoxypropyl]-3-(3-morpholin-4-yl-1H-pyrazolo[4,3-c]pyridin-6-yl)urea] | 11.8
C[C@@H](NC(=O)Nc1cc2[nH]nc(N(C)C)c2cn1)c1ccccc1 [Example 19, 1-[3-(dimethylamino)-1H-pyrazolo[4,3-c]pyridin-6-yl]-3-[(1R)-1-phenylethyl]urea] | 13.8
COCCNC(=O)Nc1cc2[nH]nc(N3CCOCC3)c2cn1 [Example 20, 1-(2-methoxyethyl)-3-(3-morpholin-4-yl-1H-pyrazolo[4,3-c]pyridin-6-yl)urea] | 13.6
COC1CN(c2n[nH]c3cc(NC(=O)N[C@H](C)c4ccccc4)ncc23)C1 [Example 22, 1-[3-(3-methoxyazetidin-1-yl)-1H-pyrazolo[4,3-c]pyridin-6-yl]-3-[(1R)-1-phenylethyl]urea] | 8.75
COC[C@@H](NC(=O)Nc1cc2[nH]nc(N3CCC3)c2cn1)c1ccccc1 [Example 24, 1-(3-azetidin-1-yl-1H-pyrazolo[4,3-c]pyridin-6-yl)-3-[(1S)-2-methoxy-1-phenylethyl]urea] | 4.8
C[C@@H](NC(=O)Nc1cc2[nH]nc(N3CCC3)c2cn1)c1ccccc1 [Example 25, 1-(3-azetidin-1-yl-1H-pyrazolo[4,3-c]pyridin-6-yl)-3-[(1R)-1-phenylethyl]urea] | 4.78
COC[C@@H](NC(=O)Nc1cc2[nH]nc(N3CCOCC3C)c2cn1)c1ccccc1 (stereo partly drawn) [Example 27, 1-[(1S)-2-methoxy-1-phenylethyl]-3-[3-(3-methylmorpholin-4-yl)-1H-pyrazolo[4,3-c]pyridin-6-yl]urea] | 1.2
C[C@@H](NC(=O)Nc1cc2[nH]nc(N3CCOCC3)c2cn1)c1ccc(F)cc1 [Example 31, 1-[(1R)-1-(4-fluorophenyl)ethyl]-3-(3-morpholin-4-yl-1H-pyrazolo[4,3-c]pyridin-6-yl)urea] | 0.4
CCNc1n[nH]c2cc(NC(=O)N[C@H](C)c3ccccc3)nc(C)c12 [Example 38, 1-[3-(ethylamino)-4-methyl-1H-pyrazolo[4,3-c]pyridin-6-yl]-3-[(1R)-1-phenylethyl]urea] | 13.9
CN1C[C@H](NC(=O)Nc2cc3[nH]nc(N4CCOCC4)c3cn2)[C@@H](c2ccccc2)C1 [Example 41, 1-[(3R,4S)-1-Methyl-4-phenylpyrrolidin-3-yl]-3-(3-morpholin-4-yl-1H-pyrazolo[4,3-c]pyridin-6-yl)urea] | 20.2
CC(=O)Nc1n[nH]c2cc(NC(=O)N[C@H](C)c3ccccc3)ncc12 [Example 47, (R)—N-(6-(3-(1-Phenylethyl)ureido)-1H-pyrazolo[4,3-c]pyridin-3-yl)acetamide] | 0.66
CCS(=O)(=O)Nc1n[nH]c2cc(NC(=O)N[C@H](C)c3ccccc3)ncc12 [Example 50, (R)—N-(6-(3-(1-Phenylethyl)ureido)-1H-pyrazolo[4,3-c]pyridin-3-yl)ethanesulfonamide] | 321

Continued, values first:

IC50 [nM] | SMILES
30 | COC[C@@H](C)NC(=O)Nc1cc2[nH]nc(N3CCOCC3)c2cn1 [Example 11, 1-[(1R)-2-methoxy-1-methylethyl]-3-(3-morpholin-4-yl-1H-pyrazolo[4,3-c]pyridin-6-yl)urea]
28 | C[C@@H](NC(=O)Nc1cc2[nH]nc(N3CCN(C)CC3)c2cn1)c1ccccc1 [Example 13, 1-[3-(4-methylpiperazin-1-yl)-1H-pyrazolo[4,3-c]pyridin-6-yl]-3-[(1R)-1-phenylethyl]urea]
10.4 | CCN(CC)c1n[nH]c2cc(NC(=O)N[C@H](COC)c3ccccc3)ncc12 [Example 21, 1-[3-(diethylamino)-1H-pyrazolo[4,3-c]pyridin-6-yl]-3-[(1S)-2-methoxy-1-phenylethyl]urea]
1 | COC[C@@H](NC(=O)Nc1cc2[nH]nc(N3CCCC3)c2cn1)c1ccccc1 [Example 28, 1-[(1S)-2-methoxy-1-phenylethyl]-3-(3-pyrrolidin-1-yl-1H-pyrazolo[4,3-c]pyridin-6-yl)urea]
0.82 | C[C@@H](NC(=O)Nc1cc2[nH]nc(N3CCCC3)c2cn1)c1ccccc1 [Example 29, 1-[(1R)-1-phenylethyl]-3-(3-pyrrolidin-1-yl-1H-pyrazolo[4,3-c]pyridin-6-yl)urea]
0.4 | COC[C@@H](NC(=O)Nc1cc2[nH]nc(N3CCOCC3)c2cn1)c1ccccc1 [Example 30, 1-[(1S)-2-methoxy-1-phenylethyl]-3-(3-morpholin-4-yl-1H-pyrazolo[4,3-c]pyridin-6-yl)urea]
0.37 | C[C@@H](NC(=O)Nc1cc2[nH]nc(N3CCOCC3)c2cn1)c1ccccc1 [Example 32, 1-(3-morpholin-4-yl-1H-pyrazolo[4,3-c]pyridin-6-yl)-3-[(1R)-1-phenylethyl]urea]
0.2 | CN1C[C@@H](NC(=O)Nc2cc3[nH]nc(N4CCOCC4)c3cn2)[C@H](c2ccccc2)C1 [Example 42, 1-[(3S,4R)-1-methyl-4-phenylpyrrolidin-3-yl]-3-(3-morpholin-4-yl-1H-pyrazolo[4,3-c]pyridin-6-yl)urea]
2.81 | C[C@@H](NC(=O)Nc1cc2[nH]nc(N)c2cn1)c1ccc(F)cc1 [Example 44, 1-(3-amino-1H-pyrazolo[4,3-c]pyridin-6-yl)-3-[(1R)-1-(4-fluorophenyl)ethyl]urea]
652 | C[C@@H](NC(=O)Nc1cc2[nH]nc(NS(C)(=O)=O)c2cn1)c1ccccc1 [Example 51, N-[6-({[(1R)-1-phenylethyl]carbamoyl}amino)-1H-pyrazolo[4,3-c]pyridin-3-yl]methanesulfonamide]
914 | C[C@@H](NC(=O)Nc1cc2[nH]nc(NS(=O)(=O)C3CC3)c2cn1)c1ccccc1 [Example 52, N-[6-({[(1R)-1-phenylethyl]carbamoyl}amino)-1H-pyrazolo[4,3-c]pyridin-3-yl]cyclopropanesulfonamide]
424 | C[C@@H](NC(=O)Nc1cc2[nH]nc(NS(=O)(=O)C3CCC3)c2cn1)c1ccccc1 [Example 53, N-[6-({[(1R)-1-phenylethyl]carbamoyl}amino)-1H-pyrazolo[4,3-c]pyridin-3-yl]cyclobutanesulfonamide]
810 | COCCS(=O)(=O)Nc1n[nH]c2cc(NC(=O)N[C@H](C)c3ccccc3)ncc12 [Example 54, 2-methoxy-N-[6-({[(1R)-1-phenylethyl]carbamoyl}amino)-1H-pyrazolo[4,3-c]pyridin-3-yl]ethanesulfonamide]
